Measured values published in patent US20180077929A1, “METHODS AND SYSTEMS FOR TREATING MEDICAL DEVICES AND FLUIDS” (priority 2016, published 2018).
Values joined by “and” are separate entries in the source; they are usually repeats but may differ in a detail not shown here. Equal values may be shown once.

What was measured:
[1] = Suture testing in Ethyl Acetate containing CaSt; type: biochemical; conditions: contaminated suture in Ethyl Acetate w/ 5% Calcium Stearate, 10 seconds; Ethyl Acetate alone 80.4 EU, no submersion 105.6 EU
Method: An absorbable VICRYL® (Polyglactin 910) suture (Size 1, Length: 27 in) made of a copolymer made from 90% glycolide and 10% L-lactide was exposed to a solution containing LPS (endotoxin) (9 Strands of Vicryl suture were immersed in tubing with endotoxin solution (SRW, Concentration: 3980 EU/mL) for 10 minutes at a time at ambient temperature. The sutures were air dried for 20 minutes in a vented chemical hood and then placed in round bottom and dried The suture was then immersed into Ethyl Acetate (EtAc) containing CaSt, vortexed briefly for 10 seconds, dried for 20 minutes in a vented chemical hood, and extracted in endotoxin free water at ambient temperature. The suture extracted in endotoxin free water (LRW) was then tested for LPS using the Kinetic Chromogenic Method for Endotoxin Quantitation, Charles River Laboratories, Charleston S.C.

[2] = Wound dressing (fibrin pad) testing in cyclohexane containing CaSt; type: biochemical; conditions: dressing spiked with 8.9 EU, 15 minutes in 10 mL cyclohexane with 0.1 g CaSt
Method: A wound dressing containing dry fibrinogen and dry thrombin on an absorbable support was tested as follows. The pad was spiked with LPS and then exposed to cyclohexane containing CaSt to determine the effect on detectable LPS.
Three 1×2 inch pieces of the dressing were spiked with endotoxin resulting in 8.9 EU of LPS. The pieces were allowed to dry for 20 minutes, then placed into 50 mL polypropylene conical tubes. 7.5 mL of LAL reagent water+2.5 mL 0.25M tris buffer was added to Tube 1. 10 mL of cyclohexane with 0.1 g of CaSt was added to Tube 2. 10 mL of cyclohexane was added to Tube 3. The tubes were closed and then placed on the bottle roller rotator machine for 15 minutes so that the tube could continuously roll and the dressing was constantly in contact with liquid.
Tube 1 solution was then diluted and tested for endotoxin on the MCS system. The fibrin pad pieces from Tube 2 and Tube 3 were removed and placed in new tubes and extracted in 7.5 mL of LAL reagent water+2.5 mL 0.25M tris buffer. The solutions were then tested on the MCS system for endotoxin (LPS).

[3] = Detection of LPS in water in presence of CaSt and EDTA and Tween 20; type: biochemical; conditions: 8330 EU spiked
Method: Further testing was performed with addition of EDTA and Polysorbate 20 reagents to verify permanent removal of LPS/endotoxin activity, by adding EDTA and Polysorbate 20 to the extraction solutions to test for potential recovery of endotoxin activity when introduced to these two substances.
The testing was performed in aqueous solutions with added EDTA and Polysorbate 20, with suspended CaSt present in some solutions in varying quantities. […] The tubes were vortexed for 1 minute and placed in a 37 C bath for 1 hour. The tubes were removed from the bath and again vortexed for 1 minute. The solutions were diluted and tested for endotoxin using the Kinetic Chromogenic Method for Endotoxin Quantitation, Charles River Laboratories, Charleston S.C. […] These samples were rigorously vortexed and tested using the Kinetic Chromogenic Method for Endotoxin Quantitation, Charles River Laboratories, Charleston S.C.

[4] = Efficacy of sonicated CaSt suspension stored 1 month; type: biochemical
Method: 10 ml of LRW water (LAL reagent water, contains no endotoxin) containing 0.04 g of CaSt suspension was sonicated using Misonix Probe Sonicator, Model: S-4000, Amplitude: 30, Time: 30 seconds and then the suspension was stored for 1 month at ambient temperature. Then 1 ml of the above suspension was added to 10 ml endotoxin containing water SRW and the resulting endotoxin concentrations in the combined solution measured after 15 min and 30 min, with the results presented in Table 14.

[5] = Kinetics of removal of LPS with different agitation techniques and stearate salts; type: biochemical; conditions: for Endotoxin Detected: 5 mL SRW, baseline 1,502 EU; for Percent (%) Removed: SRW baseline 1,502 EU
Method: 5 mL of SRW was added to each of the tubes. Each solution was tested for endotoxin removal after agitation based on with sonication, vortexing, or test tube rolling. Sonication samples were sonicated at each indicated time interval for 30 seconds at a magnitude of 30. Vortex samples were vortexed at each indicated time interval for 30 seconds at 2500 RPM. Rolling samples were constantly rolling at 10 rpm. The samples were tested on the MCS for endotoxin at 1 minute, 20 minutes, 40 minutes, 60 minutes, and 80 minutes.

[6] = Animal study: calcium stearate alone dosed intraperitoneally (NC-2); type: in vivo; conditions: NC-2: 0.2 g Calcium Stearate in 5.0 mL normal saline, intraperitoneal, female rats, observed 4 days
Method: An animal study was conducted with 30 female rats with weights ranging from 250-300 g and acclimated for 5 days. All rats were dosed with intraperitoneal injections using 18 gauge needles. The rats were broken into 6 groups. A negative control (NC-1) dosed 5 rats with 5 mL of normal saline solution. […] A positive control (PC-1) dosed 5 rats with 2.5 million EU in a 5 mL saline solution. A second positive control (PC-2) was conducted dosing 5 rats with 5 million endotoxin units in a 5 mL normal saline solution. Two experimental test groups were conducted.
The negative control samples also had no toxicity.

[7] = CaSt suspension 0.007 g in 5 mL
[8] = CaSt suspension 0.007 g with 0.1M EDTA and 0.05% Tween20
[9] = CaSt suspension 0.018 g in 5 mL
[10] = CaSt suspension 0.018 g with 0.1M EDTA and 0.05% Tween20
[11] = CaSt suspension 0.028 g in 5 mL
[12] = CaSt suspension 0.028 g with 0.1M EDTA and 0.05% Tween20

For Calcium Stearate, the “Endotoxin Detected” value [1] was 23.4 EU and 21.78 EU and 25.62 EU, the “Endotoxin detected on Pad” value [2] was 1.8 EU and the “Percent Endotoxin detected as compared to Tube 1” value [2] was 20.2%. For the same substance, the “Endotoxin detected on Pad” value ([2]; listed as CaSt) was 2 EU, the Endotoxin Detected [3, 7] was 3995 EU and the “Percent detected Endotoxin” value [3, 7] was 48.0%. The Endotoxin Detected [3, 8] was 5050 EU, the “Percent detected Endotoxin” value [3, 8] was 60.6% and the Endotoxin Detected [3, 9] was 1487.5 EU. The “Percent detected Endotoxin” value [3, 9] was 17.9%, the Endotoxin Detected [3, 10] was 1545 EU and the “Percent detected Endotoxin” value [3, 10] was 18.5%. The Endotoxin Detected [3, 11] was 235 EU, the “Percent detected Endotoxin” value [3, 11] was 2.8% and the Endotoxin Detected [3, 12] was 255 EU. For the same substance, the “Percent detected Endotoxin” value [3, 12] was 3.1%, the “Endotoxin EU/mL (15 min after addition of CaSt suspension)” value ([4]; 0.04 g CaSt in 10 ml LRW sonicated, stored 1 month, initial endotoxin 732.5 EU/mL, 15 min) was 372 EU/mL and 362 EU/mL and the “Endotoxin EU/mL (30 min after addition of CaSt suspension)” value ([4]; 0.04 g CaSt in 10 ml LRW sonicated, stored 1 month, initial endotoxin 732.5 EU/mL, 30 min) was 384 EU/mL and 278 EU/mL. The “Percent Endotoxin Removal (15 min)” value ([4]; sonicated CaSt suspension stored 1 month, 15 min) was 49.2% and 50.6%, the “Percent Endotoxin Removal (30 min)” value ([4]; sonicated CaSt suspension stored 1 month, 30 min) was 47.6% and 62.0% and the “Endotoxin Detected” value ([5]; Rolling, 1 minute) was 1,230 EU. For the same substance, the “Percent (%) Removed” value ([5]; Rolling, 1 minute) was 18.1%, the “Endotoxin Detected” value ([5]; Rolling, 20 minutes) was 1,050 EU and the “Percent (%) Removed” value ([5]; Rolling, 20 minutes) was 30.1%. For the same substance, the “Endotoxin Detected” value ([5]; Rolling, 40 minutes) was 630 EU, the “Percent (%) Removed” value ([5]; Rolling, 40 minutes) was 58.1% and the “Endotoxin Detected” value ([5]; Rolling, 60 minutes) was 637 EU. The “Percent (%) Removed” value ([5]; Rolling, 60 minutes) was 57.6%, the “Endotoxin Detected” value ([5]; Rolling, 80 minutes) was 451 EU and the “Percent (%) Removed” value ([5]; Rolling, 80 minutes) was 70%. For the same substance, the “Endotoxin Detected” value ([5]; Sonication, 1 minute) was 270 EU, the “Percent (%) Removed” value ([5]; Sonication, 1 minute) was 82% and the “Endotoxin Detected” value ([5]; Sonication, 20 minutes) was 130 EU. For the same substance, the “Percent (%) Removed” value ([5]; Sonication, 20 minutes) was 91.3%, the “Endotoxin Detected” value ([5]; Sonication, 40 minutes) was 87.5 EU and the “Percent (%) Removed” value ([5]; Sonication, 40 minutes) was 94.2%. For the same substance, the “Endotoxin Detected” value ([5]; Sonication, 60 minutes) was 56.9 EU, the “Percent (%) Removed” value ([5]; Sonication, 60 minutes) was 96.2% and the “Endotoxin Detected” value ([5]; Sonication, 80 minutes) was 16.4 EU. The “Percent (%) Removed” value ([5]; Sonication, 80 minutes) was 98.9%, the “Endotoxin Detected” value ([5]; Vortexing, 1 minute) was 451 EU and the “Percent (%) Removed” value ([5]; Vortexing, 1 minute) was 70%. The “Endotoxin Detected” value ([5]; Vortexing, 20 minutes) was 301 EU, the “Percent (%) Removed” value ([5]; Vortexing, 20 minutes) was 80% and the “Endotoxin Detected” value ([5]; Vortexing, 40 minutes) was 139 EU. For the same substance, the “Percent (%) Removed” value ([5]; Vortexing, 40 minutes) was 90.7%, the “Endotoxin Detected” value ([5]; Vortexing, 60 minutes) was 173 EU and the “Percent (%) Removed” value ([5]; Vortexing, 60 minutes) was 88.5%. The “Percent (%) Removed” value ([5]; Vortexing, 80 minutes) was 93.1% and the “Results (toxicity observed)” value [6] was “No Toxicity”.
